From patent US20210259949A1, “USE OF A BIXA ORELLANA EXTRACT” (BASF Beauty Care Solutions France SAS, priority 2018, published 2021)

System: IGFBP3 protein
Experiment: Quantification of IGFBP3 protein by ELISA in supernatant of normal human keratinocytes
Type: cell-based
Details: IGF-1 at 100 ng/ml, 24 h, related to non-treated cells (100), NS
Procedure: Normal human keratinocytes were cultured up to 70% confluence, then treated for 24 h with IGF-1 at 100 ng/ml or the Bixa orellana extract obtained according to Example 1a) before mixing with maltodextrin and spray-drying at 0.1% or 0.05% (w/w in the total medium) for 24 h. The cells are lysed for assaying the DNA, and the supernatant is used for the quantification of the IGFBP3 protein by ELISA according to the protocol of the supplier of the ELISA kit (LSBio Human IGFBP3 ELISA Kit ref LS-F24538 lot 103180).
The results are related to non-treated cells. A statistical t-test test is carried out, and the means are compared.

With “IGF-1: growth factor insulin-like growth factor type 1 (IGF1), used at 100 ng/ml” the “IGFBP3 protein, Mean” value was 128.195.
